Measurements taken from patent US8889699B2, “5-fluorouracil derivative” (Delta-Fly Pharma, Inc., priority 2009, dated 2014).
Like-named read-outs stand apart in the source and are kept apart here.

Tests used:
sarcoma 180 cells = assay: Inhibition of intracellular phosphorylation of 5-FU in cancer cells; assay type: cell-based, mouse; conditions: for inhibition at 10 µM / inhibition at 100 µM: Mus musculus, Sarcoma-180, 0.5 h
Procedure: (§1) • (a) Test liquid preparation 1: Compound I-2 or I-10 of the present invention was dissolved to a concentration of 1 mM in cold physiological saline. The resulting product was further diluted 10-fold with physiological saline, yielding a 100-μM solution. • (b) Test liquid preparation 2: As an OPRT inhibitor, which inhibits the phosphorylation of 5-FU, citrazinic acid (Citra.A.) was dissolved to a concentration of 1 mM in cold physiological saline, and further diluted 10-fold with physiological saline, yielding a 100-μM solution. • (c) Preparation of cancer cell suspension: Ascites-type sarcoma 180 cells were preliminarily transplanted intraperitoneally into an ICR mouse and proliferated therein for use in the test as raw (intact) cells. The proliferated cells were isolated and then washed with physiological saline. […] Immediately after the completion of the reaction, 4 mL of a cold Hanks solution was added to the reaction solution, and the cells were washed and separated by centrifugation. After this procedure was repeated twice, 2 mL of a cold 5% trichloroacetic acid (TCA) solution was added to the cell pellet to disrupt the cells, and 5-FU and its nucleotide metabolites were extracted. Subsequently, a portion of the nucleic acid extract was applied to a silica gel 60F254 plate and developed with a mixed liquid comprising chloroform-methanol-acetic acid (17:3:1) to isolate the nucleotide moiety. The radioactivity thereof was measured and the concentration of 5-FU phosphorylation was measured.
as §1, with “1: Compounds I-9, I-11, I-12, and I-13” for “1: Compound I-2 or I-10”, “invention were separately” for “invention was”, “saline. Each of the” for “saline. The”, “resulting products” for “resulting product”, “acid” for “acid (Citra.A.)”

[1] = system: human gastric cancer strain (SC-2); conditions: 14 days, day 15; for Average weight change (%) / Tumor proliferation inhibition ratio (%): Test Example 3; for BWC (% initial) / IR (%): Test Example 6
Procedure: The resulting product was stirred with a stirrer at room temperature for about 10 minutes. […] Thereafter, ultrasonic treatment was performed under ice cooling for about 5 minutes, thereby obtaining a BOF-A2 drug liquid to be used at a dose of 14 mg/kg/day, 21 mg/kg/day, or 28 mg/kg/day. • (f) Experiment: The human gastric cancer strain (SC-2) was subcutaneously transplanted into the back of a BALB/cA-nu mouse and preliminarily proliferated therein. The proliferated strain was extracted, cut into about 2 mm square pieces with scissors in physiological saline, and subcutaneously inoculated to the right axillary region of mice of the same strain, 5 to 6 weeks of age, using a transplantation needle. […] Then, drug administration was initiated from the next day. Each of the test liquids shown in (a) to (e) above was administered orally to the mice in each of the test drug groups using a sonde for oral administration at a dose of 0.1 ml per 10 g body weight once a day for 14 continuous days. In the same manner as the above, the cancer-bearing mice in the control group were subjected to oral administration of only 0.5% HPMC liquid for 14 continuous days.
The tumor volume of each mouse in each group before the initiation of the treatment, on day 3, day 5, day 8 (1 week after), day 11, and day 15 (2 weeks after), i.e., after termination of the administration, was calculated using Equation 1 below, and respective relative tumor volume (RTV) relative to the tumor volume at the time of initiation of the treatment was calculated. In relation to the antitumor effect, the average value of the tumor proliferation inhibition ratio (IR; %) was calculated from the average tumor volume of each treatment group on day 15 (after termination of the treatment) relative to that of the control group on day 15, using Equation 2. […] Along therewith, a weight change ratio was calculated from the body weight of the mice at the time of the termination of the drug administration relative to the body weight of the mice at the time of the initiation of the administration, using Equation 3. […] Tumor volume(mm^3)=(major axis)×(minor axis)^2×½ Equation 1: Tumor proliferation inhibition ratio(IR, %)=[1−(average tumor volume of treatment group)/(average tumor volume of control group)]×100 Equation 2: Average weight change ratio(%)=[(average weight on Day 15)−(average weight on Day 1)]/(average weight on Day 1)×100 Equation 3: […]
The resulting product was stirred with a stirrer at room temperature for about 10 minutes. […] The proliferated strain was extracted, cut into about 2 mm square pieces with scissors in physiological saline, and subcutaneously inoculated to the right axillary region of mice of the same strain, 5 to 6 weeks of age, using a transplantation needle. […] Then, drug administration was initiated from the next day. Each of the test liquids shown in (a) to (c) above was administered orally to the mice in each of the test drug groups using a sonde for oral administration at a dose of 0.1 ml per 10 g body weight once a day for 14 continuous days. In the same manner as the above, the cancer-bearing mice in the control group were subjected to oral administration of only 0.5% HPMC liquid for 14 continuous days.
The tumor volume of each mouse in each group before the initiation of the treatment, on day 3, day 5, day 8 (1 week after), day 11, and day 15 (2 weeks after), i.e., after termination of the administration, was calculated using Equation 1 below, and respective relative tumor volume (RTV) relative to the tumor volume at the time of initiation of the treatment was calculated. In relation to the antitumor effect, the average value of the tumor proliferation inhibition ratio (IR; %) was calculated from the average tumor volume of each treatment group on day 15 (after termination of the treatment) relative to that of the control group on day 15, using Equation 2.

[2] = Conc. 10 μM, 30 min, Table 3 run with control 60.93
[3] = Conc. 100 μM, 30 min, Table 3 run with control 60.93
[4] = Conc. 10 μM, 30 min, Table 3 run with control 60.93, read-out: % Inhibition of 5-FU phosphorylation
[5] = Conc. 100 μM, 30 min, Table 3 run with control 60.93, read-out: % Inhibition of 5-FU phosphorylation
[6] = concentration of 10 μM, reaction for 30 minutes, read-out: percent inhibition of intracellular phosphorylation of 5-FU
[7] = concentration of 100 μM, reaction for 30 minutes, read-out: percent inhibition of intracellular phosphorylation of 5-FU
[8] = Conc. 10 μM, 30 min, Table 3 run with control 63.32
[9] = Conc. 100 μM, 30 min, Table 3 run with control 63.32
[10] = Conc. 10 μM, 30 min, Table 3 run with control 63.32, read-out: % Inhibition of 5-FU phosphorylation
[11] = Conc. 100 μM, 30 min, Table 3 run with control 63.32, read-out: % Inhibition of 5-FU phosphorylation
[12] = Conc. 10 μM, 30 min. Incubation, 5-FU 2 μM, Table 6
[13] = Conc. 100 μM, 30 min. Incubation, 5-FU 2 μM, Table 6
[14] = Conc. 10 μM, 30 min. Incubation, 5-FU 2 μM, Table 6, read-out: Inhibition (%) of phosphorylation of 5-FU
[15] = Conc. 100 μM, 30 min. Incubation, 5-FU 2 μM, Table 6, read-out: Inhibition (%) of phosphorylation of 5-FU

CCOCn1cc(F)c(=O)n(C(=O)c2cccc(C(=O)Oc3cc(OC(=O)c4cc(O)nc(O)c4)c(Cl)cn3)c2)c1=O [Compound I-2, 3-{3-[4-(2,6-dihydroxyisonicotinoyloxy)-5-chloro-2-pyridyloxycarbonyl]benzoyl}-1-ethoxymethyl-5-fluorouracil]
F-nucleotides (sarcoma 180 cells; [2]): 47.26 pmol/1 × 10^7 cells | F-nucleotides (sarcoma 180 cells; [3]): 28.88 pmol/1 × 10^7 cells | inhibition at 10 µM (sarcoma 180 cells; [4]): 22.4% | inhibition at 100 µM (sarcoma 180 cells; [5]): 52.6% | inhibition at 10 µM (sarcoma 180 cells; [6]): 20 to 30% | inhibition at 100 µM (sarcoma 180 cells; [7]): 50 to 60% | Average weight change (%) ([1]; 15.0 mg/kg/day oral): −1.13% | Tumor proliferation inhibition ratio (%) ([1]; 15.0 mg/kg/day oral): 41.1% | Average weight change (%) ([1]; 22.5 mg/kg/day oral): −4.18% | Tumor proliferation inhibition ratio (%) ([1]; 22.5 mg/kg/day oral): 56.0% | Average weight change (%) ([1]; 30.0 mg/kg/day oral): 1.76% | Tumor proliferation inhibition ratio (%) ([1]; 30.0 mg/kg/day oral): 67.9%

CCOCn1cc(F)c(=O)n(C(=O)c2cccc(C(=O)Oc3cc(OC(=O)c4cc(OC(C)=O)nc(OC(C)=O)c4)c(Cl)cn3)c2)c1=O [Compound I-10, 3-{3-[4-(2,6-diacetyloxyisonicotinoyloxy)-5-chloro-2-pyridyloxycarbonyl]benzoyl}-1-ethoxymethyl-5-fluorouracil]
F-nucleotides (sarcoma 180 cells; [8]): 40.71 pmol/1 × 10^7 cells | F-nucleotides (sarcoma 180 cells; [9]): 27.62 pmol/1 × 10^7 cells | inhibition at 10 µM (sarcoma 180 cells; [10]): 35.7% | inhibition at 100 µM (sarcoma 180 cells; [11]): 56.4% | inhibition at 10 µM (sarcoma 180 cells; [6]): 20 to 30% | inhibition at 100 µM (sarcoma 180 cells; [7]): 50 to 60% | Average weight change (%) ([1]; 25.7 mg/kg/day oral): 1.97% | Tumor proliferation inhibition ratio (%) ([1]; 25.7 mg/kg/day oral): 31.9% | Average weight change (%) ([1]; 34.2 mg/kg/day oral): −0.05% | Tumor proliferation inhibition ratio (%) ([1]; 34.2 mg/kg/day oral): 51.0% | Average weight change (%) ([1]; 42.8 mg/kg/day oral): −4.31% | Tumor proliferation inhibition ratio (%) ([1]; 42.8 mg/kg/day oral): 57.7%

CCOCn1cc(F)c(=O)n(C(=O)c2cccc(C(=O)Oc3cc(OC(=O)c4cc(OC(=O)CC)nc(OC(=O)CC)c4)c(Cl)cn3)c2)c1=O [Compound I-11, 3-{3-[4-(2,6-dipropionyloxyisonicotinoyloxy)-5-chloro-2-pyridyloxycarbonyl]benzoyl}-1-ethoxymethyl-5-fluorouracil]
RNA Fraction (sarcoma 180 cells; [12]): 40.71 pmol/1 × 10^7 cells | RNA Fraction (sarcoma 180 cells; [13]): 27.62 pmol/1 × 10^7 cells | inhibition at 10 µM (sarcoma 180 cells; [14]): 35.7% | inhibition at 100 µM (sarcoma 180 cells; [15]): 56.4% | inhibition at 10 µM (sarcoma 180 cells; [6]): 35 to 57% | inhibition at 100 µM (sarcoma 180 cells; [7]): 56 to 63% | BWC (% initial) ([1]; 26.7 mg/kg oral): +1.68 % initial | IR (%) ([1]; 26.7 mg/kg oral, equivalent to 7.5 mg/kg of S-1): 17.0% | BWC (% initial) ([1]; 35.6 mg/kg oral): +1.82 % initial | IR (%) ([1]; 35.6 mg/kg oral, equivalent to 10 mg/kg of S-1): 32.0% | BWC (% initial) ([1]; 44.5 mg/kg oral): −3.94 % initial | IR (%) ([1]; 44.5 mg/kg oral, equivalent to 12.5 mg/kg of S-1): 47.3%

O=C(O)c1cc(O)nc(O)c1 [Citra. A., citrazinic acid, reference compound]
RNA Fraction (sarcoma 180 cells; [12]): 62.19 pmol/1 × 10^7 cells | F-nucleotides (sarcoma 180 cells; [2]): 55.78 pmol/1 × 10^7 cells | F-nucleotides (sarcoma 180 cells; [8]): 62.19 pmol/1 × 10^7 cells | RNA Fraction (sarcoma 180 cells; [13]): 60.13 pmol/1 × 10^7 cells | F-nucleotides (sarcoma 180 cells; [3]): 51.72 pmol/1 × 10^7 cells | F-nucleotides (sarcoma 180 cells; [9]): 60.13 pmol/1 × 10^7 cells | inhibition at 10 µM (sarcoma 180 cells; [14]): 1.8% | inhibition at 10 µM (sarcoma 180 cells; [4]): 8.5% | inhibition at 10 µM (sarcoma 180 cells; [10]): 1.8% | inhibition at 100 µM (sarcoma 180 cells; [15]): 5% | inhibition at 100 µM (sarcoma 180 cells; [5]): 15.1% | inhibition at 100 µM (sarcoma 180 cells; [11]): 5.1% | inhibition at 100 µM (sarcoma 180 cells; [7]): 5 to 15%

CCOCn1cc(F)c(=O)n(C(=O)c2cccc(C(=O)Oc3cc(OC(=O)c4cc(OC(=O)C5CCCC5)nc(OC(=O)C5CCCC5)c4)c(Cl)cn3)c2)c1=O [Compound I-9, 3-{3-[4-(2,6-dicyclopentanecarbonyloxyisonicotinoyloxy)-5-chloro-2-pyridyloxycarbonyl]benzoyl}-1-ethoxymethyl-5-fluorouracil]
RNA Fraction (sarcoma 180 cells; [12]): 27.42 pmol/1 × 10^7 cells | RNA Fraction (sarcoma 180 cells; [13]): 23.61 pmol/1 × 10^7 cells | inhibition at 10 µM (sarcoma 180 cells; [14]): 56.7% | inhibition at 100 µM (sarcoma 180 cells; [15]): 62.7% | inhibition at 10 µM (sarcoma 180 cells; [6]): 35 to 57% | inhibition at 100 µM (sarcoma 180 cells; [7]): 56 to 63% | BWC (% initial) ([1]; 49.5 mg/kg oral): +4.67 % initial | IR (%) ([1]; 49.5 mg/kg oral, equivalent to 12.5 mg/kg of S-1): 29.5%
